Assays:
[1] = target: T1, SMYD3 (Homo sapiens (Human), UniProt Q9H7B4); assay: SMYD3 biochemical assay (SPA, 3H-SAM methylation of MEKK2 protein substrate)
Method in brief: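 Enzyme: untagged full-length human SMYD3 from E. coli; substrate GST-tagged MEKK2 from insect cells. Buffer 25 mM Tris-Cl pH 8.0, 1 mM TCEP, 0.005% BSG/Tween 20. 30 min compound–enzyme preincubation at RT; 3H-SAM/MEKK2 start; stop with cold SAM (100 uM final); SPA readout in cpm.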

[2] = target: T1, SMYD3; assay: SMYD3 cell assay (Trimethyl-MEKK2 In-Cell Western in 293T/17 cells); assay type: cell-based
Text: Trimethyl-MEKK2-in-Cell Western Assay
MEM/Glutamax medium, Optimem Reduced Serum medium, penicillin-streptomycin, 0.05% trypsin and 1×D-PBS were purchased from Life Technologies, Grand Island, N.Y., USA. PBS-10× was purchased from Ambion, Life Technologies, Grand Island, N.Y., USA. PBS with Tween 20 (PBST (10×)) was purchased from KPL, Gaithersburg, Md., USA. Tet System FBS-approved FBS US Source was purchased from Clontech, Mountain View, Calif., USA. Odyssey blocking buffer, 800CW goat anti-rabbit IgG (H+L) antibody, 680CW Goat anti-mouse IgG (H+L) and Licor Odyssey infrared scanner were purchased from Licor Biosciences, Lincoln, Nebr., USA. Tri-methyl-Lysine [A260]-MEKK2 antibody, MEKK2 and SMYD3 plasmids were made at Epizyme. Anti-flag monoclonal mouse antibody was purchased from Sigma, St. Louis, Mo., USA. Methanol was purchased from VWR, Franklin, Mass., USA. 10% Tween 20 was purchased from KPL, Inc., Gaithersburg, Md., USA. Fugene was purchased from Promega, Madison, Wis., USA. The Biotek ELx405 was purchased from BioTek, Winooski, Vt., USA. The multidrop combi was purchased from Thermo Scientific, Waltham, Mass., USA.
Cell Treatment, in Cell Western (ICW) for Detection of Trimethyl-Lysine-MEKK2 and MEKK2.
Plasmids were prepared for delivery to cells by first mixing 1350 μL Opti-MEM with Fugene (81 μL) in a sterile Eppendorf and incubated for five minutes at room temperature (RT). […] Entire volume of Opti-MEM/Fugene mixture was then added to a microfuge tube containing DNA plasmid, mixed and then incubated×15 minutes at RT. […] Medium was then removed, and cells were washed once with PBS in the flask. Trypsin 0.05% (3 mL) was added and cells incubated for three minutes. Room temperature MEM+10% Tet system FBS was added and cells were mixed gently, and counted using the Vi-cell. Cells were seeded at 100,000 cells/mL in 50 μL MEM/10% Tet FBS/Pen/Strep to a 384 well black/clear poly-D-lysine coated plate containing test agent diluted in DMSO. The final top concentration of test compound was 40 μM. […] Plates were incubated×30 minutes at RT in low-airflow area, followed by incubation at 37° C. under 5% CO2 for 24 hours. Medium was aspirated from all wells of assay plates prior to fixation and permeabilization with ice cold (−20° C.) methanol (90 μL/well) for ten minutes. Plates were rinsed with PBS three times on BioTek ELx405. PBS was removed with a final aspiration, and Odyssey blocking buffer (50 μL/well) was added to each well and incubated for one hour at RT. Primary antibody solution was prepared (anti-trimethyl-MEKK2 at 1:600 dilution plus mouse anti-flag antibody at 1:10,000 dilution in diluent (Odyssey Blocking buffer+0.1% Tween 20)) and 20 μL per well was dispensed using the Multidrop Combi. Assay plates were then sealed with foil, and incubated overnight at 4° C. Plates were washed five times with PBS-Tween (1×) on Biotek ELx405 and blotted on paper towel to remove excess reagent.
First, the ratio for each well was determined by:
Each plate included fourteen control wells of DMSO only treatment (Minimum Inhibition) as well as fourteen control wells for maximum inhibition (Background). The average of the ratio values for each control type was calculated and used to determine the percent inhibition for each test well in the plate. Reference compound was serially diluted two-fold in DMSO for a total of nine test concentrations, beginning at 40 μM.
Percent inhibition was calculated (below).
Non-linear regression curves were generated to calculate the IC50 and dose-response relationship using triplicate wells per concentration of compound.

[3] = Table 2A, read-out: SMYD3 Biochem IC50
[4] = Table 2A, read-out: SMYD3 Cell IC50
[5] = read-out: SMYD3 Biochem IC50 (μM)*
[6] = read-out: SMYD3 Cell IC50 (μM)*

T1 sequence (Q9H7B4 whole entry): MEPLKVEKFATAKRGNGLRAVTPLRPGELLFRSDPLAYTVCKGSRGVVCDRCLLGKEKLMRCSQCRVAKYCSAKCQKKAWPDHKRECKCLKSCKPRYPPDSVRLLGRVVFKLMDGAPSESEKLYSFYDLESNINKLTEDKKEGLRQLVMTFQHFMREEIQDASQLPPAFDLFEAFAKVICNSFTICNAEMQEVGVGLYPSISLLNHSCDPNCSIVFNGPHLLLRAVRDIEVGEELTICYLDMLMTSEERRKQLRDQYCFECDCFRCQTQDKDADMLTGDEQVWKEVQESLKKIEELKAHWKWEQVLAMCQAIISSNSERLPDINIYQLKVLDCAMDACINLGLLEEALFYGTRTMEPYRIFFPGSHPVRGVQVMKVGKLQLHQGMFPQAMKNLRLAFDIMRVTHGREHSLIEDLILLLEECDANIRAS

| SMILES | IC50 [1, 5] [µM] | IC50 [2, 6] [µM] | other results |
| --- | --- | --- | --- |
| O=C(N[C@H]1C[C@H]2CC[C@@H](C1)N2S(=O)(=O)N1CC2(CCNCC2)C1)c1cc(C2CC2)on1 [Cpd. No. 559, N-((1R,3r,5S)-8-(2,7-diazaspiro[3.5]nonan-2-ylsulfonyl)-8-azabicyclo[3.2.1]octan-3-yl)-5-cyclopropylisoxazole-3-carboxamide 2,2,2-trifluoroacetate] | – | – | IC50 [1, 3]: 0.0047 µM; IC50 [2, 4]: 0.0319 µM |
| CCc1cc(C(=O)N[C@H]2C[C@H]3CC[C@@H](C2)N3S(=O)(=O)CC2CCNCC2)no1 [Cpd. No. 562, 5-ethyl-N-((1R,3r,5S)-8-(piperidin-4-ylmethylsulfonyl)-8-aza-bicyclo[3.2.1]octan-3-yl)isoxazole-3-carboxamide] | – | – | IC50 [1, 3]: 0.0052 µM; IC50 [2, 4]: 0.0615 µM |
| CN1CCC(CS(=O)(=O)N2[C@@H]3CC[C@H]2C[C@@H](NC(=O)c2cc(C4CC4)on2)C3)CC1 [Cpd. No. 770, 5-cyclopropyl-N-((1S,3r,5R)-8-((l-methylpiperidin-4-yl)methylsulfonyl)-8-aza-bicyclo[3.2.1]octan-3-yl)isoxazole-3-carboxamide] | – | – | IC50 ([1]; read-out: SMYD3 Biochem IC50*): 0.00088 µM; IC50 ([2]; read-out: SMYD3 Cell IC50*): 0.0192 µM |
| N[C@@H](Cc1ccc(O)c(I)c1)C(=O)N1CCC(NC(=O)c2cc(C3CC3)on2)CC1 [compound 5, (S)-N-(1-(2-amino-3-(4-hydroxy-3-iodophenyl)propanoyl)piperidin-4-yl)-5-cyclopropylisoxazole-3-carboxamide] | 0.116 | 0.809 | – |
| NC[C@@H](Cc1ccccc1)C(=O)N1CCC(NC(=O)c2cc(C3CC3)on2)CC1 [compound 10, (R)-N-(1-(3-amino-2-benzylpropanoyl)piperidin-4-yl)-5-cyclopropylisoxazole-3-carboxamide] | 0.319 | 1.82 | – |
| NC[C@H](Cc1ccc(O)c(I)c1)C(=O)N1CCC(NC(=O)c2cc(C3CC3)on2)CC1 [compound 29, (S)-N-(1-(3-amino-2-(4-hydroxy-3-iodobenzyl)propanoyl)piperidin-4-yl)-5-cyclopropylisoxazole-3-carboxamide] | 0.0423 | 1.1 | – |
| CC1CN(S(=O)(=O)CCCN)CCC1NC(=O)c1cc(C2CC2)on1 (centres unmarked) [compound 46, N-(1-((3-aminopropyl)sulfonyl)-3-methylpiperidin-4-yl)-5-cyclopropylisoxazole-3-carboxamide] | 0.119 | – | IC50 [2]: 1.02 µM |
| C[C@H]1C[C@H](NC(=O)c2cc(C3CC3)on2)CCN1C(=O)CC1CCNCC1 [compound 56, 5-cyclopropyl-N-((2S,4R)-2-methyl-1-(2-(piperidin-4-yl)acetyl)piperidin-4-yl)isoxazole-3-carboxamide] | 0.172 | 3.18 | – |
| C[C@@H]1C[C@H](NC(=O)c2cc(C3CC3)on2)CCN1C(=O)[C@H]1CC[C@H](N)CC1 [compound 57, N-((2R,4R)-1-((1r,4R)-4-aminocyclohexane-1-carbonyl)-2-methylpiperidin-4-yl)-5-cyclopropylisoxazole-3-carboxamide] | 0.0716 | 0.947 | – |
| NC[C@@H](Cc1ccc(O)c(Cl)c1)C(=O)N1CCC(NC(=O)c2cc(C3CC3)on2)CC1 [compound 63, (R)-N-(1-(3-amino-2-(3-chloro-4-hydroxybenzyl)propanoyl)piperidin-4-yl)-5-cyclopropylisoxazole-3-carboxamide] | 0.139 | 1.44 | – |
| C[C@@H]1CN(S(=O)(=O)CCN)CCC1NC(=O)c1cc(C2CC2)on1 (stereo partly drawn) [compound 65, N-((3R)-1-((2-aminoethyl)sulfonyl)-3-methylpiperidin-4-yl)-5-cyclopropylisoxazole-3-carboxamide] | 0.205 | 1.05 | – |
| C[C@H]1CN(S(=O)(=O)CCN)CCC1NC(=O)c1cc(C2CC2)on1 (stereo partly drawn) [compound 66, N-((3S)-1-((2-aminoethyl)sulfonyl)-3-methylpiperidin-4-yl)-5-cyclopropylisoxazole-3-carboxamide] | 0.59 | 3.72 | – |
| C[C@@H]1CC(NC(=O)c2cc(C3CC3)on2)CCN1S(=O)(=O)CCN (stereo partly drawn) [compound 77, N-((2R)-1-((2-aminoethyl)sulfonyl)-2-methylpiperidin-4-yl)-5-cyclopropylisoxazole-3-carboxamide] | 0.633 | 2.91 | – |
| C[C@H]1CC(NC(=O)c2cc(C3CC3)on2)CCN1S(=O)(=O)CCN (stereo partly drawn) [compound 78, N-((2S)-1-((2-aminoethyl)sulfonyl)-2-methylpiperidin-4-yl)-5-cyclopropylisoxazole-3-carboxamide] | 0.155 | 0.792 | – |
| N[C@H]1CC[C@H](C(=O)N2CC3CCC2CC3NC(=O)c2cc(C3CC3)on2)CC1 (some centres unmarked) [compound 88, N-(2-((1r,4r)-4-aminocyclohexane-1-carbonyl)-2-azabicyclo[2.2.2]octan-5-yl)-5-cyclopropylisoxazole-3-carboxamide] | 0.156 | 2.5 | – |
| CC(C)C1CC(NC(=O)c2cc(C3CC3)on2)CCN1C(=O)[C@H]1CC[C@H](N)CC1 (some centres unmarked) [compound 99, N-(1-((1r,4r)-4-aminocyclohexane-1-carbonyl)-2-isopropylpiperidin-4-yl)-5-cyclopropylisoxazole-3-carboxamide] | 0.23 | 3.05 | – |
| N[C@H]1CC[C@H](C(=O)N2[C@@H]3CC[C@H]2C[C@@H](NC(=O)c2cc(C4CC4)on2)C3)CC1 [compound 102, N-((1R,3R,5S)-8-((1r,4R)-4-aminocyclohexane-1-carbonyl)-8-azabicyclo[3.2.1]octan-3-yl)-5-cyclopropylisoxazole-3-carboxamide] | 0.106 | 1.7 | – |
| O=C(NC1CCN(C(=O)CC2CCNCC2)C(Cc2ccccc2)C1)c1cc(C2CC2)on1 (centres unmarked) [compound 109, N-(2-benzyl-1-(2-(piperidin-4-yl)acetyl)piperidin-4-yl)-5-cyclopropylisoxazole-3-carboxamide] | 0.0968 | 1.93 | – |
| CC[C@@H]1CC(NC(=O)c2cc(C3CC3)on2)CCN1C(=O)[C@H]1CC[C@H](N)CC1 (stereo partly drawn) [compound 110, N-((2R)-1-((1r,4R)-4-aminocyclohexane-1-carbonyl)-2-ethylpiperidin-4-yl)-5-cyclopropylisoxazole-3-carboxamide] | 0.0994 | 0.893 | – |
| C[C@@H]1CC(NC(=O)c2cc(C3CC3)on2)CCN1C(=O)[C@H]1CC[C@H](N)CO1 (stereo partly drawn) [compound 118, N-((2R)-1-((2R,5S)-5-aminotetrahydro-2H-pyran-2-carbonyl)-2-methylpiperidin-4-yl)-5-cyclopropylisoxazole-3-carboxamide] | 0.208 | 1.35 | – |
| CN[C@H]1CC[C@H](C(=O)N2CCC(NC(=O)c3cc(C4CC4)on3)C[C@H]2C)CC1 (stereo partly drawn) [compound 124, 5-cyclopropyl-N-((2R)-2-methyl-1-((1r,4R)-4-(methylamino)cyclohexane-1-carbonyl)piperidin-4-yl)isoxazole-3-carboxamide] | 0.274 | 2.24 | – |
| C[C@@H]1CN(C(=O)[C@H]2CC[C@H](N)CC2)CC[C@@H]1NC(=O)c1cc(C2CC2)on1 [compound 148, N-((3R,4S)-1-((1r,4R)-4-aminocyclohexane-1-carbonyl)-3-methylpiperidin-4-yl)-5-cyclopropylisoxazole-3-carboxamide] | 0.282 | 1.81 | – |

Source: patent US10577363B2, “Substituted piperidine compounds” (EPIZYME, INC., priority 2014, dated 2020)
